Consider 4 molecules from US7893109B2, “N,N-dihalogenated amino acids and derivatives” (Novabay Pharmaceuticals, Inc., priority 2003, dated 2011).

In brackets after ≈: the same amount, converted by molar mass. Where two headings read alike, the source gives them in different places.

Series [1] has as its system Escherichia coli (ATCC 11229). As to the kind of experiment: Bactericidal activity (MBC / effective antimicrobial concentration). Format: cell-based. How it is done: To determine the bactericidal activity, we used Escherichia coli (ATCC 11229). The bacterial culture was diluted in sterile saline to prepare inocula. Various test articles were transferred to individual tubes already containing 1.0×10^5 to 2.0×10^5 Colony Forming Units (CFU)/mL bacteria and mixed by gentle vortexing and then incubated at 37° C. for 1 or 24 hours. In an attempt to mimic as far as possible the conditions, which could be produced in vivo if the test articles were used as antiseptics, bacterial plating in a Petri dish was performed immediately after the designated exposure time without the addition of a neutralizer, and independently with addition of neutralizer (as control). Thus, 0.1 mL was removed after 1 or 24 hours exposure times and plated. Plates were incubated at 37° C., and the numbers of bacteria were counted by direct colony count to numerate the surviving bacteria as CFU/mL. Positive growth controls were made with sterile 0.9% saline. All test articles were tested three times.

A short description of a further series: in vitro. Conditions: human, pH 3.5. How it is done: (§1) Cytotoxicity was assessed by a […] assay system, initially described by Scudiero et al., using 3′-(phenylamino-carbonyl)-3,4-tetrazolium-bis(4-methoxy-6-nitro) benzene sulfonic acid hydrate (XTT), ProCheck™ cell viability assay (Evaluation of a soluble tetrazolium/formazan assay for cell growth and drug sensitivity in culture using human and other tumor cell lines described by Scudiero D A, Shoemaker R A H, Paul K D, Monks A, Tierney S, Nofziger T H, Currens M J, Seniff D, Boyd M R. Cancer Res. 1988 Sep. 1; 48(17):4827-33). Similar approaches for determining the cell viability are used by other investigators. Three cell types were used: […] (L929), primary human skin fibroblast and primary human keratinocyte cells cultured in Dulbecco Modified Eagle's Medium and Keratinocyte defined medium with corresponding growth factors plus antibiotics. Cells were trypsinized and counted under the microscope and seeded at 1000-to-2000 cells per well of a flat-bottom 96-well plate. Cells were allowed to grow over-night at 37° C. Next day, tissue culture media was removed and cells were rinsed with fresh media 1× and then left in 50 μL of tissue culture media. Test articles were prepared as 2-fold dilutions and 200 μL was added into each set of 4-wells (total volume per well=250 μL). Cells were exposed to test articles for 60 min at room temperature. Immediately after the exposed time, test article from each well was removed and cells were fed with 250 μL of fresh media. Plates were incubated at 37° C. for 18-20 hours. The following day media was removed again and replaced with 100 μL/well of fresh media containing 10/100 μL XTT-reagent. Cells were incubated under growth conditions (5% CO2 at 37° C. humidified incubator), protected from light, until color development was achieved. Absorbance was read at 450 nm with reference wavelength at 750 nm using Molecular Device ThermoMax Plate reader, blanking the plate on the medium-only assay blank wells. Untreated cells receiving XTT reagents-only served as positive cell proliferation control.

For series [2], the system named is Primary Human Skin Fibroblasts. As to the kind of experiment: XTT cytotoxicity assay, primary human skin fibroblasts. Conditions: for cell inhibitory concentration toxicity index (CCI50 / IC50), 50% of cells still alive: Primary Human Skin Fibroblasts, XTT Assay, 60 min exposure. The protocol:
as §1
Background: Tetrazolium dyes change colour on reduction, which living cells bring about.

The nature of series [3]: Storage stability of N,N-dichlorotaurine solution in a vial in a refrigerator. Format: physicochemical. The conditions noted are these: solution in a vial stored in a refrigerator; three months. How it is done: The stability of a solution of N,N-dihaloamino acids and their derivatives permits the use of different forms of packaging that would be practical for use by patients. The solution may be packaged in several single-use 30 ml amber glass bottles with Teflon-lined screw caps and sealed with tape to ensure gas tightness. In one aspect, the same solution may be packaged in a 250 ml amber glass bottle or in a 250 ml non-reactive plastic bottle. However, up to 5 liter bottles may be used, because such larger volumes are practical for treatment of burns. Storage in these receptacles ensures long-term stability required for the uses of the compositions described herein in detail. […] Additionally, packaging may include a dual chamber system where component A is mixed with component B to form the final product, N,N-dihaloamino acid or its derivatives.

The conditions of series [4]: pH 3.5.
Series [5] is described as follows: UV-vis spectrum and concentration of NNDCT solutions at pH 3.0 to 5.0. The conditions noted are these: 1.49 mM; pH range from 3.0 to 5.0. Format: physicochemical. How it is done:
The spectra and the concentrations of the solutions were measured on the UV-vis spectrometer.
Add 8.8 g NaCl, 2 ml of 1.0 M HCl, and 0.278 g of taurine into a 1000-ml volumetric flask, followed by adding about 800 ml of deionized water into the flask. Shake the flask to dissolve NaCl and taurine powders. Then add […] of 0.15M of the NaOCl solution into the flask. Fill the flask up to the mark with deionized water. Stir the solution with a magnetic stirring bar for 5 minutes. The concentration and the pH of the resulting solution were measured on a UV-vis spectrometer and a freshly calibrated Beckman pH meter. This solution has a concentration of 1.49 mM and a pH value of 3.85. […] The final pH of this solution is 3.0. […] The final pH of this solution is 4.85.
Solutions with varying pH values were prepared in a similar manner within the pH range of 3 to 5. All solutions show stability if properly stored as shown by their UV spectra.

The conditions of series [6]: pH=1.88; after 100 hours; cited from earlier work.
The format of series [7] is physicochemical. The source says: N,N-dichlorotaurine can be identified and quantitatively determined by UV spectroscopy.
A short description of series [8]: Volatility test, tightly vs loosely capped bottles. Format: physicochemical. Conditions: 1.47 mM in 0.9% saline at pH 3.5; 4 weeks at room temperature. How it is done:
NNDCT is not volatile. A solution of 1.47 mM in 0.9% saline at pH 3.5 was filled in two glass bottles. One bottle was capped tightly and another was capped loosely.

In general, IC50 refers to the concentration needed to halve the response being measured.

In the case of `O=S(=O)(O)CCNCl` [NCT, N-chlorotaurine, reference compound], the “factor by which less antimicrobial than NNDCT” value in series [1] (on an equal concentration basis) amounted to 1000 fold.

Take `O=S(=O)(O)CCN(Cl)Cl` [NNDCT, N,N-dichlorotaurine]: in the series “in vitro”, it took 1440 µg/mL (≈ 7.43 mM) to reach half-maximal inhibition (IC50 at 60 min). The “range of cell toxicity relative to antimicrobial (μM) range” value in [2] (0.9% saline at pH 3.5, XTT assay, cell type not stated in Example 5) is recorded as 1000 fold. Moreover, the “cell inhibitory concentration toxicity index (CCI50 / IC50), 50% of cells still alive” value in [2] is 7000 µM. Further, in series [3], the “loss of N,N-dichlorotaurine” value is “no more than 13%”. For the same molecule, the NNDCT lost in series [4] (4 weeks, refrigerator (4° C.), [NNDCT]initial=1.47 mM) is 5.4%. Moreover, the “order of stability at three temperatures” value in [4] was 4° C.>room temperature>40 °C. The “change of spectrum and concentration of solution with pH” value in series [5] is “did not change”. For the same molecule, in series [6], the “loss of N,N-dichlorotaurine” value is given as “less than 5%”. In addition, in series [7], the solubility in water entry is on record as “very soluble”. Also, in series [8], the volatility entry is “not volatile”. In series [1] (60 min exposure at 37° C.), the “bacterial killing efficiency of NNDCT at pH 3.5 compared to NCT at pH 9.5” value was 1000 fold and the “bacterial killing efficiency of NNDCT at pH 3.5 over NNDCT at pH 5.0” value is listed as “about 300 fold”. Besides, the “effectiveness against E. coli compared with HOCl” value in series [1] (pH 3.5) is “better or as effective against E. coli as HOCl”.

Take `OCl` [OCl^−, reference compound]: the “cell inhibitory concentration toxicity index (CCI50 / IC50), 50% of cells still alive” value in [2] is 660 µM.

With `OCl` [HOCl, hypochlorous acid, reference compound], in “in vitro”, the IC50 at 60 min was 47 µg/mL (≈ 0.896 mM). In addition, in [2], the “cell inhibitory concentration toxicity index (CCI50 / IC50), 50% of cells still alive” value worked out at 800 µM.
